Data taken from publication PMC4870302, “In Vitro and In Vivo Comparison of Selected Ga-68 and Zr-89 Labelled Siderophores” (Molecular Imaging and Biology, 2015).

How the values were obtained:
[1] = Protein binding in fresh human serum (size-exclusion MicroSpin G-50); format: in vitro ADME; conditions: 37 °C
[2] = In vitro stability in 6 mM DTPA solution pH 7 (RP-HPLC); format: physicochemical; conditions: 6 mM DTPA pH 7, 37 °C
Experimental: The in vitro stability of radiolabelled siderophores (3–6 μg/100 μl) was tested in fresh human serum (300 μl) and a 6 mM solution of diethylenetriaminepentaacetic acid (DTPA) pH = 7 (100 μl) at 37 °C at several time points (30, […]). After incubation, human serum samples were precipitated with acetonitrile or ethanol, centrifuged (2200×g, 3 min) and the supernatant analyzed. Degradation of the radiolabelled siderophore complexes was evaluated by RP-HPLC. Samples of the DTPA solutions were directly injected onto the HPLC.

[3] = In vitro stability in fresh human serum (RP-HPLC); format: in vitro ADME; conditions: for Stability in human serum (%) (n = 1): 37 °C; for in vitro stability (in words): human serum and 6 mM DTPA, all examined media
Experimental: […] After incubation, human serum samples were precipitated with acetonitrile or ethanol, centrifuged (2200×g, 3 min) and the supernatant analyzed. Degradation of the radiolabelled siderophore complexes was evaluated by RP-HPLC. Samples of the DTPA solutions were directly injected onto the HPLC.

[4] = Partition coefficient determination (octanol/PBS pH 7.4); format: physicochemical
Experimental: Radiolabelled siderophore in 0.5 ml phosphate-buffered saline (PBS) pH = 7.4 was added to 0.5 ml octanol and the mixture was vigorously vortexed for 15 min. The aqueous and organic solvents were separated by centrifugation and 50 μl aliquots of both layers were collected and measured in the automatic gamma counter (WIZARD^2; PerkinElmer, Waltham, USA). Log P values were calculated from obtained data (mean of n = 6).

[5] = Protein binding in fresh human serum (size-exclusion MicroSpin G-50); format: in vitro ADME; conditions: for Protein binding (%) (mean, n = 2): 37 °C; for protein binding: after 24-h incubation period
Experimental: Protein binding studies were performed by incubating radiolabelled siderophore (1–2 μg/150 μl) in fresh human serum (850 μl) and in PBS (850 μl) (control) at 37 °C for various time points (30, 60 and 120 min for [^68Ga]siderophores and 1, 4 and 24 h for [^89Zr]siderophores). After incubation, 25 μl of the sample was separated by size-exclusion chromatography (MicroSpin™ G-50 Columns; Sephadex G-50 (GE Healthcare, Buckinghamshire, UK)) by centrifugation at 2000×g for 2 min. Protein binding of radiolabelled siderophores was determined by measuring the activity distributed between the column (non protein-bound) and the eluate (protein-bound) using the automatic gamma counter.

[6] = Ex vivo biodistribution in Balb/c mice; conditions: r.o. injection, 30 and 90 min p.i.
Experimental: Biodistibution of radiolabelled siderophores was studied in female Balb/c mice (8 weeks old). Ga-68 and Zr-89 labelled siderophores (1–2 MBq/mouse, corresponding to 0.1–0.2 μg of siderophore per mouse) were injected retro-orbitally (r.o.). Animals were sacrificed by cervical dislocation 30 and 90 min post-injection (p.i.). Organs and tissues (blood, spleen, pancreas, stomach, intestine, kidneys, liver, heart, lung, muscle and femur) were removed and weighed. The amount of radioactivity in the samples was measured in an automatic gamma counter. Results were expressed as percentage of injected dose per gram organ (%ID/g).

[7] = Small animal PET/CT imaging in Balb/c mice; format: in vivo; conditions: r.o. injection, 5-10 MBq
Experimental: PET and computed tomography (CT) images were acquired with an Albira PET/SPECT/CT small animal imaging system (Bruker Biospin Corporation, Woodbridge, CT, USA). Female Balb/c mice were r.o. injected with radiolabelled siderophores in a dose of 5–10 MBq corresponding to 0.5–1 μg of siderophore per mouse. Animals were anaesthetized with isoflurane (FORANE, Abbott Laboratories, Abbott Park, IL, USA) (2 % flow rate) and positioned prone head first in the Albira system before the start of imaging. Static PET/CT imaging was carried out 5, 30 and 90 min p.i. for both Ga-68 and Zr-89 labelled siderophores. Animals injected with [^89Zr]siderophores were also imaged 4 h p.i. A 5-min PET scan (axial FOV 148 mm) was performed, followed by a CT scan (axial FOV 65 mm, 45 kVp, 400 μA, at 600 projections). Dynamic imaging was carried out immediately after the injection of radiolabelled siderophore for 90 min (5 min PET scan per frame). Scans were reconstructed with the Albira software (Bruker Biospin Corporation, Woodbridge, CT, USA) using the maximum likelihood expectation maximization (MLEM) and filtered backprojection (FBP) algorithms. After reconstruction, acquired data was viewed and analyzed with PMOD software (PMOD Technologies Ltd., Zurich, Switzerland). 3D images were obtained using VolView software (Kitware, Clifton Park, NY, USA). […]

## CC(=O)NC1CCCN([O-])C(=O)C=C(C)CCOC(=O)C(NC(C)=O)CCCN([O-])C(=O)C=C(C)CCOC(=O)C(NC(C)=O)CCCN([O-])C(=O)C=C(C)CCOC1=O.[89Zr+4] (centres unmarked) [[^89Zr]TAFC, [^89Zr]triacetylfusarinine C]
[1]; 1
  Protein binding (%) (mean, n = 2): 0.99%
[1]; 24
  Protein binding (%) (mean, n = 2): 1.37%
[2]; Incubation time (min) 1
  Stability in DTPA solution (%) (n = 1): 99.51%
[2]; Incubation time (min) 4
  Stability in DTPA solution (%) (n = 1): 99.50%
[2]; Incubation time (min) 24
  Stability in DTPA solution (%) (n = 1): 99.50%
[3]; Incubation time (min) 4
  Stability in human serum (%) (n = 1): 98.72%
[3]; incubation time 24 h
  Stability in human serum (%) (n = 1): 98.50%
[4]; Zr-89 labelled
  Log P (mean ± SD, n = 6): −1.95 ± 0.03

## CC(=O)N([O-])CCCCCNC(=O)CCC(=O)N([O-])CCCCCNC(=O)CCC(=O)N([O-])CCCCCN.[68Ga+3] [[^68Ga]FOXB]
[2]; incubation time 30 min
  Stability in DTPA solution (%) (n = 1): 60.1%
[2]; incubation time 60 min
  Stability in DTPA solution (%) (n = 1): 54.5%
[2]; incubation time 120 min
  Stability in DTPA solution (%) (n = 1): 52.9%
[3]; incubation time 30 min
  Stability in human serum (%) (n = 1): 74.1%
[3]; incubation time 60 min
  Stability in human serum (%) (n = 1): 72.0%
[3]; incubation time 120 min
  Stability in human serum (%) (n = 1): 75.4%
[3]
  in vitro stability (in words): pronounced in vitro instability
[5]; incubation time 30 min
  Protein binding (%) (mean, n = 2): 7.67%
[5]; incubation time 60 min
  Protein binding (%) (mean, n = 2): 10.29%
[5]; incubation time 120 min
  Protein binding (%) (mean, n = 2): 10.83%
[4]; Ga-68 labelled
  Log P (mean ± SD, n = 6): −3.56 ± 0.17

## CC(=O)N([O-])CCCCCNC(=O)CCC(=O)N([O-])CCCCCNC(=O)CCC(=O)N([O-])CCCCCN.[89Zr+4] [[^89Zr]FOXB]
[1]; 1
  Protein binding (%) (mean, n = 2): 1.63%
[1]; 24
  Protein binding (%) (mean, n = 2): 1.84%
[2]; Incubation time (min) 1
  Stability in DTPA solution (%) (n = 1): 91.56%
[2]; Incubation time (min) 4
  Stability in DTPA solution (%) (n = 1): 90.39%
[2]; Incubation time (min) 24
  Stability in DTPA solution (%) (n = 1): 87.10%
[3]; Incubation time (min) 4
  Stability in human serum (%) (n = 1): 99.70%
[3]; incubation time 24 h
  Stability in human serum (%) (n = 1): 99.53%
[3]
  in vitro stability (in words): higher stability in all examined media
[4]; Zr-89 labelled
  Log P (mean ± SD, n = 6): −3.01 ± 0.07

## O=C1CCC(=O)N([O-])CCCCCNC(=O)CCC(=O)N([O-])CCCCCNC(=O)CCC(=O)N([O-])CCCCCN1.[89Zr+4] [[^89Zr]FOXE, [^89Zr]ferrioxamine E]
[1]; 1
  Protein binding (%) (mean, n = 2): 3.27%
[1]; 24
  Protein binding (%) (mean, n = 2): 16.59%
[2]; Incubation time (min) 1
  Stability in DTPA solution (%) (n = 1): 99.70%
[2]; Incubation time (min) 4
  Stability in DTPA solution (%) (n = 1): 99.50%
[2]; Incubation time (min) 24
  Stability in DTPA solution (%) (n = 1): 99.70%
[6]
  ex vivo biodistribution (in words): significantly higher radioactivity accumulation in the intestines and liver
[7]
  kinetics and excretion route in PET imaging (in words): much slower kinetics and significant hepatobiliary elimination
[3]; Incubation time (min) 4
  Stability in human serum (%) (n = 1): 99.70%
[3]; incubation time 24 h
  Stability in human serum (%) (n = 1): 98.34%
[5]
  protein binding: 16.6%
[4]; Zr-89 labelled
  Log P (mean ± SD, n = 6): −1.91 ± 0.04

## CC(=O)NC1CCCN([O-])C(=O)C=C(C)CCOC(=O)C(NC(C)=O)CCCN([O-])C(=O)C=C(C)CCOC(=O)C(NC(C)=O)CCCN([O-])C(=O)C=C(C)CCOC1=O.[68Ga+3] (centres unmarked) [[^68Ga]TAFC, [^68Ga]triacetylfusarinine C]
[2]; incubation time 30 min
  Stability in DTPA solution (%) (n = 1): 85.0%
[2]; incubation time 60 min
  Stability in DTPA solution (%) (n = 1): 84.7%
[2]; incubation time 120 min
  Stability in DTPA solution (%) (n = 1): 81.8%
[3]; incubation time 30 min
  Stability in human serum (%) (n = 1): 99.9%
[3]; incubation time 60 min
  Stability in human serum (%) (n = 1): 99.9%
[3]; incubation time 120 min
  Stability in human serum (%) (n = 1): 99.9%
[5]; incubation time 30 min
  Protein binding (%) (mean, n = 2): 0.47%
[5]; incubation time 60 min
  Protein binding (%) (mean, n = 2): 0.76%
[5]; incubation time 120 min
  Protein binding (%) (mean, n = 2): 1.21%
[4]; Ga-68 labelled
  Log P (mean ± SD, n = 6): −2.59 ± 0.15

## O=C1CCC(=O)N([O-])CCCCCNC(=O)CCC(=O)N([O-])CCCCCNC(=O)CCC(=O)N([O-])CCCCCN1.[68Ga+3] [[^68Ga]FOXE, [^68Ga]ferrioxamine E]
[2]; incubation time 30 min
  Stability in DTPA solution (%) (n = 1): 94.3%
[2]; incubation time 60 min
  Stability in DTPA solution (%) (n = 1): 93.8%
[2]; incubation time 120 min
  Stability in DTPA solution (%) (n = 1): 93.2%
[6]
  ex vivo biodistribution (in words): slightly higher radioactivity values in gastrointestinal tract
[7]
  kinetics and excretion route in PET imaging (in words): quickly eliminated mainly via the kidneys
[3]; incubation time 30 min
  Stability in human serum (%) (n = 1): 99.9%
[3]; incubation time 60 min
  Stability in human serum (%) (n = 1): 99.9%
[3]; incubation time 120 min
  Stability in human serum (%) (n = 1): 99.9%
[5]; incubation time 30 min
  Protein binding (%) (mean, n = 2): 0.27%
[5]; incubation time 60 min
  Protein binding (%) (mean, n = 2): 0.24%
[5]; incubation time 120 min
  Protein binding (%) (mean, n = 2): 0.53%
[4]; Ga-68 labelled
  Log P (mean ± SD, n = 6): −1.65 ± 0.03

## CC(=CC(=O)N([O-])CCCC1NC(=O)CNC(=O)C(CO)NC(=O)C(CO)NC(=O)C(CCCN([O-])C(=O)C=C(C)C(=O)O)NC(=O)C(CCCN([O-])C(=O)C=C(C)C(=O)O)NC1=O)C(=O)O.[89Zr+4] (centres unmarked) [[^89Zr]FCHA]
[1]; 1
  Protein binding (%) (mean, n = 2): 2.70%
[1]; 24
  Protein binding (%) (mean, n = 2): 31.05%
[2]; Incubation time (min) 1
  Stability in DTPA solution (%) (n = 1): 68.70%
[2]; Incubation time (min) 4
  Stability in DTPA solution (%) (n = 1): 65.27%
[2]; Incubation time (min) 24
  Stability in DTPA solution (%) (n = 1): 54.22%
[3]; Incubation time (min) 4
  Stability in human serum (%) (n = 1): 85.42%
[3]; incubation time 24 h
  Stability in human serum (%) (n = 1): 77.38%
[3]
  in vitro stability (in words): less stable as compared to its Ga-68 labelled counterpart
[5]
  protein binding: 31.1%
[4]; Zr-89 labelled
  Log P (mean ± SD, n = 6): −3.28 ± 0.37
